Assay results from patent US6511974B1, “Tricyclic vasopressin agonists” (Wyeth, priority 1997, dated 2003).

Columns and labels:
[1] = target: T1, Vasopressin V2 (Rattus norvegicus, UniProt Q00788); test: Vasopressin V2 agonist effects in normal conscious water-loaded rats; format: in vivo; conditions: Sprague-Dawley (CD) rats, urine collected four hours; for Urine Volume (% decrease): 10 mg per kg oral, percent decrease in urine volume vs. control; for Osmolality (% Increase): 10 mg/kg oral, change in osmolality as percent of control
T1 construct: vasopressin V2 receptors of the nephrons of the kidney; tissue Charles River Laboratories, Inc; host or cells: whole living animal (kidney collecting ducts)
T1 sequence (Q00788 whole entry): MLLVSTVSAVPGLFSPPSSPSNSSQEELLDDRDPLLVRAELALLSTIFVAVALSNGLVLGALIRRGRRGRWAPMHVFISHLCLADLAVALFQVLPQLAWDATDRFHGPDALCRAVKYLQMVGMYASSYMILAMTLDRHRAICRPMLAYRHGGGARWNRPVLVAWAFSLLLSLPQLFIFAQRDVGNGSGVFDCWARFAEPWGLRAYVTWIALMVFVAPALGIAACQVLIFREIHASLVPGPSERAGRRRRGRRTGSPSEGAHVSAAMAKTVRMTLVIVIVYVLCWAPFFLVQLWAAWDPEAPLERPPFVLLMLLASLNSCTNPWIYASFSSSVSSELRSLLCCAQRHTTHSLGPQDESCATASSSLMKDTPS
From the text: Vasopressin V2 Agonist Effects of Test Compounds in Normal Conscious Water-Loaded Rats:
Male or female normotensive Sprague-Dawley rats (Charles River Laboratories, Inc., Kingston, N.Y.) of 350-500 g body weight were supplied with standard rodent diet (Purina Rodent Lab. Chow 5001) and water ad libitum. On the day of test, rats were placed individually into metabolic cages equipped with devices to separate the feces from the urine and containers for collection of urine. Test compound or reference agent was given at an oral dose of 10 mg/kg in a volume of 10 ml/kg. The vehicle used was 20% dimethylsulfoxide (DMSO) in 2.5% preboiled corn starch. Thirty minutes after dosing the test compound, rats were gavaged with water at 30 ml/kg into the stomach using a feeding needle. During the test, rats were not provided with water or food. Urine was collected for four hours after dosing of the test compound. At the end of four hours, urine volume was measured. Urinary osmolality was determined using a Fiske One-Ten Osmometer (Fiske Associates, Norwood, Mass., 02062) or an Advanced CRYOMATIC Osmometer, Model 3C2 (Advanced Instruments, Norwood, Mass.). Determinations of Na^+, K^+ and Cl^− ion were carried out using ion specific electrodes in a Beckman SYNCHRON EL-ISE Electrolyte System analyzer. The urinary osmolality should increase proportionally. In the screening test, two rats were used for each compound. If the difference in the urine volume of the two rats was greater than 50%, a third rat was used.

| Compound | melting point [°C] | Urine Volume (% decrease) [1] [%] | Osmolality (% Increase) [1] [%] |
| --- | --- | --- | --- |
| Cc1cnn(-c2ccc(C(=O)N3C=C4CC=CN4Cc4ccccc43)cc2)c1 [Example 60, [4-(4-Methyl-pyrazol-1-yl)-phenyl]-(5H,1H-pyrrolo[2,1-c][1,4]-benzodiazepin-10-yl)-methanone] | 179 to 181 | – | – |
| Cn1ncnc1-c1ccc(C(=O)N2Cc3cccn3Cc3ccccc32)c(Cl)c1 [Example 84, [2-Chloro-4-(2-methyl-2H-[1,2,4]triazol-3-yl)-phenyl]-(5H,11H-pyrrolo [2,1-c][1,4]benzodiazepin-10)-methanone] | – | 56 | 291 |
| C#Cc1ccc(C(=O)N2Cc3cccn3Cc3ccccc32)c(Cl)c1 [Example 123, [2-Chloro-4-ethynyl-phenyl](5H-11H-pyrrolo [1,2-c][1,4]benzodiazepin-10-yl)methanone.] | – | 88 | 663 |
| Cc1ccn(-c2ccc(C(=O)N3Cc4cccn4Cc4ccccc43)c(Cl)c2)n1 [Example 9A] | – | 70 | 325 |
